Laboratory results from patent US10206944B2, “Chondroitin for use in medicine” (ALTERGON S.A., priority 2012, dated 2019).
Entries after “also recorded” stand apart in the source; their conditions may differ.

Experiments:
[1] = test system: primary cultures of human chondrocytes; assay: Chondrocyte proliferation test (time-lapse videomicroscopy); type: cell-based; conditions: 1% w/v
From the text: Primary cultures of human chondrocytes isolated from healthy human cartilage samples obtained during rhinoplasty operations were used as model system. The tissue fragments just removed in the operating theatre were immersed in an 0.9% w/w NaCl saline solution and rapidly transferred to the laboratory for extraction of chondrocytes. Operating in sterile conditions under laminar-flow hood, the tissue sample was transferred to a petri dish where it was cut into small pieces using sterile tweezers and scalpels. The pieces of cartilage were then immersed in 0.01M phosphate buffer pH 7.4 (PBS) containing type 1 collagenase (3 mg/mL), dispase (4 mg/mL) and gentamicin (5 μL/mL of an 80 mg/mL solution) to ensure sterility during enzymatic digestion. The pieces were left to incubate overnight in a Falcon tube at 37° C., under stirring. After 16-18 h the solution was filtered through a 70 μm filter, transferring the parts adhering to the Falcon tube onto the filter and washing with 7-8 mL of DMEM 10% FBS. The filtrate was centrifuged at 1,500 rpm for 7 min, the supernatant was removed and the pellet was suspended in 10 mL of DMEM 10% FBS containing fungizone (5 μL/mL of an 80 mg/mL solution) and gentamicin (5 μL/mL of an 80 mg/mL solution). The cell suspension thus obtained was plated in a 25 cm^2 flask and incubated at 37° C. in a 5% CO2 atmosphere, with changes of medium every 2 or 3 days until complete confluency of the cell culture. The cells, which have the characteristic appearance of chondrocytes (small swollen cells with a slightly elongated shape), were detached from the base of the flask, counted and incubated again in fresh medium. Starting with 0.4 g of cartilage, about 2*10^6 cells were generally obtained in the second growth phase. Knowledge of the number of growth cycles to which the culture has previously been subjected is of crucial importance for primary cells; especially in the case of chondrocytes a cell differentiation process is observed wherein, as the growth phases proceed, the cells increasingly present an appearance morphologically similar to fibroblasts. For this reason the entire study is conducted with primary chondrocyte cultures at the 2nd-4th growth phase.
The effect of chondroitin on chondrocyte proliferation was evaluated with time-lapse videomicroscopy, as described in Example 1. The study was performed comparatively with chondrocytes stimulated with chondroitin sulphate, using non-stimulated chondrocytes as control system. 20*10^3 cells were seeded per well of a 24-well multiwell plate. The cells were treated with chondroitin or chondroitin sulphate with an endotoxin content ≤0.1 EU/mg at a concentration of 1% w/v in DMEM 10% FBS; in the controls, the cells were seeded in DMEM 10% FBS. The experiments were conducted in triplicate and analysed for a total time ranging between 96 and 120 h. Image analysis, conducted with Image Pro-plus 5.1 analysis software, allowed a precise number of cells to be obtained with a manual count at times pre-set by the operator, in order to construct a growth curve over time. The data analysis indicates (Table 2) that the growth of the cells treated with chondroitin was better than that of the untreated cells and the cells treated with chondroitin sulphate.

[2] = test system: mice or Sprague Dawley rats; assay: Acute toxicity study; type: in vivo, mouse and rat
Description: Acute toxicity study—The study was conducted on two animal models, the mouse and rat, to which chondroitin was administered orally (p.o.) or intravenously (i.v.). For each experiment the animals (mice or Sprague Dawley rats) were divided into 5 groups of 20 (10 males and 10 females) which received p.o. or i.v. chondroitin at doses ranging from 250 to 2,000 mg/Kg for oral administration and 20 to 160 mg/Kg for intravenous administration; the volume administered was 10 mL/Kg for p.o. administration and 5 mL/Kg for i.v. administration.
At the end of the treatment the animals were euthanized and a complete autopsy was performed.

[3] = test system: Sprague Dawley rats; assay: Subacute toxicity study, 30 days; type: in vivo, rat
Description: Subacute toxicity study—The study was performed on the rat by administering chondroitin orally (p.o.) and intramuscularly (i.m.). For each of the two studies the animals (Sprague Dawley rats) were divided into 4 groups formed by 15 males and 15 females; chondroitin at the concentration of 50, 100 and 200 mg/Kg respectively was administered to the first 3 groups, and the carrier alone to the fourth group; the administration volume was 10 mL/Kg for p.o. administration and 5 mL/Kg for i.m. administration. Daily administration continued for 30 days. The doses used represent up to 20 times the human therapeutic dose. The general state of health and behaviour of the treated animals were monitored daily, and weight variations, haematological status and urine were evaluated every 5 days. […] At the end of the study all animals were euthanized and an autopsy and histopathological analysis of the main organs (lungs, heart, liver, ovaries, uterus, testicles, kidneys and pituitary gland) were conducted. None of these evaluations indicated any significant differences between the animals treated with chondroitin and the control animals which received the carrier alone.

[4] = test system: 5 strains of Salmonella typhimurium; assay: Ames' test; type: cell-based; conditions: up to 2.0 mg/plate, with and without metabolic activation
Description: The chondroitin mutagenicity studies were conducted on different mutagenicity and genotoxicity models in vitro and in vivo (Sirtori C., File CONDRAL®, Vol. IV—Reproductive Toxicity and Mutagenesis; Slater E. et al., Rapid detection of mutagens and carcinogens, Cancer Res. 1971, 31: 970-973).
In vitro test, Ames' test—The test was performed with and without metabolic activation on 5 strains of Salmonella typhimurium. Chondroitin was tested at concentrations of between 2.0 μg/plate and 2.0 mg/plate.

[5] = test system: Wistar rats; assay: Study of fertility and reproductive capacity; type: in vivo, rat
Description: Study of fertility and reproductive capacity—The toxicology study of the possible effects of chondroitin on male fertility and female reproductive capacity was conducted on 200 Wistar rats (160 females and 40 males), randomised into four groups, each consisting of 40 females and 10 males, treated with 0, 50, 100 or 200 mg/Kg of chondroitin. Each group of female rats was divided in turn into two sub-groups of 20 animals; the first group received the product daily from the 14th day before the start of the mating period until the 19th day of gestation, and the second received it until the 21st day after the birth. All the males were treated with chondroitin for 60 days before mating and throughout the gestation period of the females. The protocol used follows the guidelines of Directive EEC 85/571.

Substance	Number of chondrocytes ([1]; time 0 h) [Cells × 10^4]	Number of chondrocytes ([1]; time 20 h) [Cells × 10^4]	Number of chondrocytes ([1]; time 40 h) [Cells × 10^4]	Number of chondrocytes ([1]; time 60 h) [Cells × 10^4]	Number of chondrocytes ([1]; time 80 h) [Cells × 10^4]	Number of chondrocytes ([1]; time 100 h) [Cells × 10^4]	LD50 ([2]; acute, single dose i.v., mouse and rat) [mg/kg]	signs of toxicity or mortality ([2]; examined every 24 h for 40 days, up to 2,000 mg/Kg p.o., 160 mg/Kg i.v.)	subacute toxicity, conclusion ([3]; rat, 50, 100 and 200 mg/Kg p.o. and i.m., 30 days)	No toxicity (dose), subacute 30 days ([3]; rat, p.o. and i.m., daily for 30 days)	point-reverse mutation (Ames' test) [4]	effect on fertility of male rats ([5]; daily oral administration for 60 days, up to 200 mg/Kg)	effect on reproductive capacity of females ([5]; daily up to 200 mg/Kg, 15 days before mating to 21st day of lactation)
chondroitin	7.0 ± 0.7	10.2 ± 0.9	15.3 ± 1.3	22.0 ± 1.8	27.0 ± 2.0	32.0 ± 2.1	> 160	no signs of toxicity or mortality were observed	non-toxic at the doses used	No toxicity >200 mg/kg/day p.o. and i.m.	do not induce a specific point-reverse mutation; also recorded: Up to 2.0 mg/plate: no point-reverse mutation	no effect on the fertility of male rats; also recorded: the dose of 200 mg/Kg, has no effect on the fertility of male	no effect on the reproductive capacity of females; also recorded: no effect on the reproductive capacity of the females
chondroitin sulphate [CS, reference compound]	7.0 ± 0.5	10.0 ± 1.2	14.0 ± 1.8	18.0 ± 1.6	21.8 ± 1.7	25.0 ± 2.5							
